Measurements from patent US8206955B2, “Production of monatin and monatin precursors” (Cargill, Incorporated, priority 2003, dated 2012).

Experiments:
[1] = system: C. testosteroni; experiment: plate assay using monatin as the main carbon and energy source; assay type: cell-based
Description: (§1) Organisms that can synthesize monatin can be detected by screening for growth on plates in which monatin (or the monatin precursor (MP)) is the main carbon and energy source. Screening by this method requires (1) that the synthetic pathway be reversible, allowing the product, monatin, to be metabolized by this route and (2) that the organism has a transport system that is able to import monatin or MP. S. meliloti, P. straminea, and C. testosteroni were tested for their ability to grow on minimal medium plates which contained monatin as the primary carbon and energy source.
(§2) Plates containing M9 minimal medium or Rhizobium minimal medium were prepared with 0.01% casamino acids and 0.1-0.2% carbon source (glucose or purified monatin). Negative control plates contained casamino acids but no additional carbon source. S. meliloti, P. straminea, and C. testosteroni were grown in rich media to OD 2.1-2.7 and diluted 1000-fold with sterile 1× phosphate-buffered saline (PBS). A volume of 1-10 μL was used for plating. The plates were incubated at 26° C. for several days. […] The experiments were repeated and C. testosteroni was grown in both NB as well as PHB media prior to induction. Again using M9 media for plating, the S. meliloti appeared to grow better with monatin as the carbon source than the other organisms. […] In addition, at the higher dilution (10^−6), the use of PHB-grown inoculum increased the number and size of colonies obtained compared to the NB-grown inoculum.

[2] = system: S. meliloti; experiment: as above; assay type: cell-based; conditions: M9 medium + monatin (0.1-0.2%), 26° C.
Description: as §1, §2

[3] = stability of MP; assay type: physicochemical
From the text: Any effect of additional tryptophan and pyruvate was not detectable, except in the case of Comamonas, where a benefit was noted. […] It is not known whether tryptophan and pyruvate are efficiently taken up in these wildtype organisms, or what changes in gene expression occur as a result of adding large concentrations of these substrates to the medium. While the parahydroxybenzoate substrate is only known to induce the aldolase in Comamonas, it appears to have improved the level of monatin produced in S. meliloti as well.

[4] = aldolase activity assay, indole-3-pyruvate and pyruvate to MP; assay type: biochemical
Description: The proteins were assayed for activity using indole-3-pyruvate and sodium pyruvate as substrates. The assay mixture contained 100 mM Tris-HCl (pH 7-pH 8.9), 0-8 mM MgCl2, 3 mM potassium phosphate (pH 8), and 6 mM of each substrate in 1 mL. The reaction was started by adding varying amounts of polypeptide (for example from 10 to 100 μg), and was incubated at 25° C.-37° C. for 30 minutes, filtered, and then frozen at −80° C.
There is no evidence that magnesium and phosphate are required for activity for this enzyme. However, the literature reports performing the assays in sodium phosphate buffer, and the enzyme reportedly is bifunctional and has activity on phosphorylated substrates such as 2-keto-3-deoxy-6-phosphogluconate (KDPG). The enzymatic assays were performed as described above, and in some instances the phosphate was omitted. […] In some cases the level of MP produced by KHG was almost identical to the amount produced by magnesium and phosphate alone. […] The Bacillus enzyme had the highest activity, approximately 20-25% higher activity than the magnesium and phosphate alone, as determined by LC/MS/MS (see Example 6). […] All three enzymes have the active site glutamate (position 43 in B. subtilis numbering system) as well as the lysine required for Shiff base formation with pyruvate (position 130); however, the B. subtilis enzyme contains a threonine in position 47, an active site residue, rather than arginine. The B. subtilis KHG is smaller and appears to be in a cluster distinct from the S. meliloti and E. coli enzymes, with other enzymes having the active site threonine. The differences in the active site may be the reason for the increased activity of the B. subtilis enzyme.

[5] = system: C. testosteroni ProA aldolase and L-aspartate aminotransferase (AspC); experiment: production of monatin utilizing alternative C3-carbon sources; assay type: biochemical
Description: The reaction mixture consisted of 50 mM Tris-Cl pH 8.3, 2 mM MgCl2, 200 mM C3 carbon source, 5 mM alpha-ketoglutarate, sodium salt, 0.05 mM pyridoxal phosphate, deaerated water to achieve a final volume of 0.5 mL after the addition of the enzymes, 3 mM potassium phosphate pH 7.5, 25 μg of crude recombinant C. testosteroni ProA aldolase as prepared in Example 2, 500 μg of crude L-aspartate aminotransferase (AspC) as prepared in Example 1, and solid tryptophan to afford a concentration of >60 mM (saturated; some undissolved throughout the reaction). The reaction mix was incubated at 30° C. for 30 minutes with mixing. Serine, alanine, and aspartate were supplied as 3-carbon sources. Assays were performed with and without secondary PLP enzymes (purified) capable of performing beta-elimination and beta-lyase reactions (tryptophanase (TNA), double mutant tryptophanase, β-tyrosinase (TPL)).

[6] = system: E. coli BL21(DE3); experiment: effect of Tweens on growth of E. coli in shake flasks; conditions: for effect on growth rate: 0.2% Tween in the presence of 10 μg/mL ampicillin, followed over 48 h
Description: The affect of several detergent Tweens on the growth rate of E. coli BL21(DE3) was studied in shake flask experiments. Either Tween-20, -40, 60, or -80 was added at 0.2% in the presence of 10 μg/mL ampicillin and the growth was followed over 48 h.

[7] = 200 mM C3 carbon source, additional PLP enzyme: None
[8] = additional PLP enzyme: 11 μg wildtype TNA (1 U)
[9] = additional PLP enzyme: 80 μg double mutant TNA

NC(CC(O)(Cc1c[nH]c2ccccc12)C(=O)O)C(=O)O (racemic) [monatin, 2-hydroxy-2-(indol-3-ylmethyl)-4-aminoglutaric acid]
growth with monatin as carbon source ([1]; M9 media + monatin): exhibited some growth | growth with monatin as carbon source ([1]; Rhizobium minimal medium): grew better with monatin as the carbon and energy source than it did with glucose | growth with monatin as carbon source [2]: exhibited better growth than the other strains tested

O=C(O)C(=O)CC(O)(Cc1c[nH]c2ccccc12)C(=O)O (centres unmarked) [MP, 2-hydroxy 2-(indole-3-ylmethyl)-4-keto glutaric acid]
stability ([3]; aqueous solution): unstable in an aqueous solution | stability ([3]; fermentation broth and cell extracts): not stable in this particular matrix

Cc1ncc(COP(=O)(O)O)c(C=O)c1O [PLP, pyridoxal 5′-phosphate, reference compound]
formation of MP from indole-3-pyruvate and pyruvate (in words) [4]: did not appear to detectably convert indole-3-pyruvate to MP

C[C@H](N)C(=O)O [alanine]
Relative Activity [5, 7]: 32% | Relative Activity [5, 8]: 41.7% | Relative Activity [5, 9]: 43.9%

N[C@@H](CO)C(=O)O [serine]
Relative Activity [5, 7]: 3% | Relative Activity [5, 8]: 5.1% | Relative Activity [5, 9]: 4.6%

C. testosteroni aldolase: 4-hydroxy-4-methyl-2-oxoglutarate pyruvate lyase (ProA aldolase) from Comamonas testosteroni (SEQ ID NO: 66)
amount of MP produced ([4]; standard assay using 20 μg of purified protein, based on tryptophan standards): 10-40 μg per one mL reaction

Tween 40
inhibition to growth ([6]; 0.2% Tween): least inhibition to growth | effect on growth rate [6]: affected the growth rate the least

Tween-60
effect on growth rate [6]: intermediate in affect

Tween-80
effect on growth rate [6]: intermediate in affect

polyoxyethylene 20-Sorbitan monolaurate [Tween 20]
final OD600 relative to cultures grown in the presence of Tween 40 ([6]; 0.2% Tween): slightly over half | effect on growth rate [6]: about half

tryptophanase
formation of MP from indole-3-pyruvate and pyruvate (in words) [4]: did not appear to detectably convert indole-3-pyruvate to MP
